In PMC11887673, “Malformin C preferentially kills glioblastoma stem‐like cells via concerted induction of proteotoxic stress and autophagic flux blockade” (Molecular Oncology, 2024):
Bridge positions count the residues as written; N and C are the ends. Square brackets hold non-standard residues; d marks the D form. Peptide text beside a SMILES is read from it.

How the values were obtained:
NCH421k [1] = assay: Assessment of synergy, combination cell viability (CellTiter-Glo); type: cell-based, human
Procedure: NCH421k cells were seeded in 96‐well white plates with 8500 cells per well in 40 μL medium. To determine control curves, cells were treated with 50 μL of a 2× concentration of TMZ or CQ and 10 μL of medium and incubated for 48 h. For drug combinations, cells were treated with 10 μL of a 10× concentration of malformin C and with 50 μL of a 2× concentration of TMZ or CQ. Cell viability was determined after 48 h using the CellTiter‐Glo® assay according to the manufacturer's instructions. Synergy was determined using […] at https://synergyfinder.org/ [35].

[2] = tested on: NCH421k GSCs expressing luciferase; assay: In vivo tumor propagation, flank xenograft; design: species or system NSG mice
Procedure: (§1) NCH421k GSCs were transduced with lentiviral particles carrying the pLenti PGK V5‐LUC Neo plasmid, which was a gift from Eric Campeau (Addgene plasmid # 21471) and transduced cells were selected using 400 μg·mL^−1 G418. Six‐week‐old female NOD.Cg‐Prkdc ^ scid Il2rg ^ tm1Wjl /SzJ (NOD‐SCIDγ) mice were obtained from the animal facility at the DKFZ. All animal experiments were performed according to animal welfare regulations and were approved by the responsible authorities (Regierungspräsidium Karlsruhe, approval number G289‐14). Animals were housed in a temperature‐controlled vivarium on a 12 h : 12 h light–dark cycle with ad libitum food and water, and all animals were monitored daily for health status and tumor‐related symptoms. […] Tumor growth was monitored using an IVIS Lumina Preclinical in vivo IMAGING SYSTEM AND LIVING IMAGE Software (version 2.50.1) (Perkin Elmer, Rodgau, Germany) and volume measurement using calipers once a week for 7 weeks, or until the tumor reached a volume of 500 mm^3.
(§2) Malformin C has been previously reported to induce fatal toxicity at doses of over 0.9 mg·kg^−1 in BDF1 mice, likely due to an acute inflammatory response. […] Seven days later, after engraftment of the cells was confirmed by the appearance of a luminescence signal, mice were treated with malformin C or DMSO (0.5 mg·kg^−1 3 × per week) for 37 days. […]

[3] = tested on: NOD scid gamma (NSG) mice; assay: Toxicity and tolerability of repeated doses; type: in vivo, mouse
Procedure: as §1, §2

[4] = Pharmacokinetics in plasma and blood brain barrier penetration after i.v. administration; type: in vivo; settings: RjOrl:Swiss CD-1, mouse, iv, male CD-1 mice, 0.5 mg·kg^−1 i.v., LC–MS
Procedure: Pharmacokinetic (PK) parameters in plasma and blood brain barrier penetration after intravenous administration of malformin C were evaluated by Pharmacelsus GmbH. Nine adult male RjOrl : Swiss CD‐1 mice were injected i.v. with 0.5 mg·kg^−1 malformin C. K‐EDTA plasma was obtained from the retrobulbar venous plexus under isoflurane anesthesia. The plasma samples were prepared within 45 min after collection, frozen at −20 °C, and stored at this temperature until processed for LC–MS analysis. For brain collection, mice were sacrificed by cervical dislocation, immediately after the last blood sample was obtained. Brains were dissected, frozen, and stored at −20 °C. PK analysis was performed using […] 5.0 Software, Allersberg, Germany. All experimental procedures were approved by and conducted in accordance with the regulations of the local Animal Welfare authorities (Landesamt für Gesundheit und Verbraucherschutz, Abteilung Lebensmittel‐und Veterinärwesen, Saarbrücken).

NCH421k [5] = assay: Caspase 3/7 activation (Caspase Glo); type: cell-based, human; settings: 50 nM, within 6–8 h, n = 3
Procedure: (§3) A total of 5000 cells were seeded into white 96‐well plates in a volume of 50 μL medium. Malformin C or Az‐mal. C was added to the medium at the indicated concentrations and incubated for the indicated times. Caspase 3/7 activity was measured using the Caspase Glo assay (Promega), according to the manufacturer's protocol.

[6] = tested on: primary astrocytes (pAstro); assay: Caspase 3/7 activation (Caspase Glo); type: cell-based, human; settings: 50 nM, 8 h, n = 3
Procedure: as §3

fibroblasts (BJ) = assay: Caspase 3/7 activation (Caspase Glo); type: cell-based, human; settings: 50 nM, 8 h, n = 3
Procedure: as §3

NCH441 = assay: Caspase 3/7 activation (Caspase Glo); type: cell-based, human; settings: 50 nM, within 6–8 h, n = 3
Procedure: as §3

BDF1 mice = settings: cited from earlier work
Procedure: Malformin C has been previously reported to induce fatal toxicity at doses of over 0.9 mg·kg^−1 in BDF1 mice, likely due to an acute inflammatory response. […] In a pharmacokinetic study, malfo ...

GSCs = assay: Cell viability, GSCs compared with normal or other cells; type: cell-based, human; settings: 48 h, CellTiter-Glo
From the text: GSC lines NCH421k, NCH441, NCH644, NCH711d, and NCH705 were derived from newly diagnosed GB patients who underwent surgical resection according to the research proposals approved by the Institutional Review Board at the Medical Faculty of Heidelberg (license: Neurosurgery brain tissue 005/2003; samples collected between 2003 and 2010 at Heidelberg University Hospital from patients who gave informed written consent) and performed in accordance to the Declaration of Helsinki. The cells were cultivated in serum‐free stem cell medium up to maximum passage 60 as previously described. Human astrocytes originating from fetal cerebral cortex were purchased from ScienCell, Research Laboratories, Carlsbad, CA, USA (#1800) and cultured in DMEM (Sigma‐Aldrich, Steinheim, Germany) supplemented with 10% (v/v) FCS (Merck Millipore, Darmstadt, Germany), 1 mM sodium pyruvate, 1 × GlutaMAX, and 1 × N‐2 supplement (all Life Technologies, Darmstadt, Germany). Human fetal neural stem cells (HFNSCs) were kindly provided by Dr C Watts at the Department of Clinical Neurosciences, University of Cambridge. Tissue procurement was approved by the Cambridge Local Regional Ethics committee and in accordance with section 16(e) (ii) of the United Kingdom Human Tissue Act and the Declaration of Helsinki. They were established from 12‐ to 14‐week‐old human postmortem fetal tissue as described by Iovino et al. The cells were cultured as neurospheres in neural stem cell medium (DMEM/F‐12 medium, 2% (v/v) B27 supplement, at 20 ng·mL^−1 each of bFGF and EGF, 2.5 μg·mL^−1 heparin). BJ cells (RRID: CVCL_3653) (human fibroblasts) were purchased from ATCC and cultivated in DMEM low glucose supplemented with 10% FCS. […]
Cells were seeded in 96‐well plates at a density of 8500 cells per well. […] Cell viability was assessed by the CellTiter‐Glo® (Promega) luminescent cell viability assay. […] Data were normalized to the vehicle control, and four parameter logistic curves were fitted and IC50 values calculated using […] […]

With `CCN(CC)CCCC(C)Nc1ccnc2cc(Cl)ccc12` (stereo not shown) [CQ, chloroquine] the “synergy with malformin C (SynergyFinder, ZIP synergy score)” value (NCH421k [1]) was “much stronger”, the inhibition at 23.7 µM (NCH421k [1]; Homo sapiens, 48 h, CQ 23.7 μM, Malformin C 0 nM, n = 3) was 17% and the inhibition at 31.6 µM (NCH421k [1]; Homo sapiens, 48 h, CQ 31.6 μM, Malformin C 0 nM, n = 3) was 32%. For the same compound, the inhibition at 42.2 µM (NCH421k [1]; Homo sapiens, 48 h, CQ 42.2 μM, Malformin C 0 nM, n = 3) was 33% and the inhibition at 75 µM (NCH421k [1]; Homo sapiens, 48 h, CQ 75 μM, Malformin C 0 nM, n = 3) was 99%.

In the case of `Cn1nnc2c(C(N)=O)ncn2c1=O` [TMZ, temozolomide], the “synergy with malformin C (SynergyFinder, ZIP synergy score)” value (NCH421k [1]) is reported as “synergistic effect”, the inhibition at 80 µM (NCH421k [1]; Homo sapiens, 48 h, TMZ 80 μM, Malformin C 0 nM, n = 3) is reported as 2% and the inhibition at 160 µM (NCH421k [1]; Homo sapiens, 48 h, TMZ 160 μM, Malformin C 0 nM, n = 3) is reported as 6%. The inhibition at 310 µM (NCH421k [1]; Homo sapiens, 48 h, TMZ 310 μM, Malformin C 0 nM, n = 3) was 6%, the inhibition at 500 µM (NCH421k [1]; Homo sapiens, 48 h, TMZ 500 μM, Malformin C 0 nM, n = 3) was 22% and the inhibition at 1000 µM (NCH421k [1]; Homo sapiens, 48 h, TMZ 1000 μM, Malformin C 0 nM, n = 3) was 47%.

With `CC(C)C[C@@H]1NC(=O)[C@@H](CC(C)C)NC(=O)[C@H](C(C)C)NC(=O)[C@H]2CSSC[C@@H](NC1=O)C(=O)N2` [malformin C] (cyclo(L[dC][dC]V[dL]); disulfide 2-3) the “weights of the mice” value ([2]; 0.5 mg·kg^−1 i.p. 3 × per week, NSG mice, during the study) was “did not affect the weights of the mice”, the “tumor growth (luminescence, caliper volume)” value ([2]; flank of NSG mice, 0.5 mg·kg^−1 i.p. 3 × per week for 37 days, monitored 49 days, n = 9 vs 8 DMSO) was “dramatically suppressed tumor growth” and the tolerability ([3]; 0.5 mg·kg^−1 i.p. three times per week, NSG mice) was “tolerated well”. The “repeated doses causing intolerable toxicity” value ([3]; immune-deficient NSG mice) was “over 0.9 mg·kg^−1”, the level at time molar at 1 h ([4]; brain, by 1 h, read-out: equivalent molar concentration in the brain) was about 1.9 nM and the half-life ([4]; K-EDTA plasma, n=3 mice per time point) was 5.8 h. For the same compound, the “caspase 3/7 activation” value (NCH421k [5]) was “significantly activated caspases”, the “caspase 3/7 activation” value [6] was “not” and the “caspase 3/7 activation” value (fibroblasts (BJ)) was “not”. For the same compound, the “caspase 3/7 activation” value (NCH441) was “significantly activated caspases” and the “doses inducing fatal toxicity” value (BDF1 mice) was “over 0.9 mg·kg^−1”.

In the case of `CN[C@@H]1C[C@H]2O[C@@](C)([C@@H]1OC)n1c3ccccc3c3c4c(c5c6ccccc6n2c5c31)C(=O)NC4` [staurosporine], the “loss of viability in GSCs compared with normal cells” value (“loss … compared with normal cells” below) (GSCs) is reported as “similarly”.

For malformin A1, the “loss … compared with normal cells” value (GSCs) was “more potent against GSCs than normal cells”.

In the case of tunicamycin, the “loss … compared with normal cells” value (GSCs) is reported as “not more sensitive than astrocytes”.
